pIC50: −log10 of the molar value.
These compounds were tested against ATP-dependent translocase ABCB1 (Homo sapiens, UniProt P08183) (assay: TP_TRANSPORTER: cell accumulation of calcein in L-MDR1 cells). Conditions: not given.
Type: functional, cell-based

Chain of ATP-dependent translocase ABCB1 (P08183 whole entry): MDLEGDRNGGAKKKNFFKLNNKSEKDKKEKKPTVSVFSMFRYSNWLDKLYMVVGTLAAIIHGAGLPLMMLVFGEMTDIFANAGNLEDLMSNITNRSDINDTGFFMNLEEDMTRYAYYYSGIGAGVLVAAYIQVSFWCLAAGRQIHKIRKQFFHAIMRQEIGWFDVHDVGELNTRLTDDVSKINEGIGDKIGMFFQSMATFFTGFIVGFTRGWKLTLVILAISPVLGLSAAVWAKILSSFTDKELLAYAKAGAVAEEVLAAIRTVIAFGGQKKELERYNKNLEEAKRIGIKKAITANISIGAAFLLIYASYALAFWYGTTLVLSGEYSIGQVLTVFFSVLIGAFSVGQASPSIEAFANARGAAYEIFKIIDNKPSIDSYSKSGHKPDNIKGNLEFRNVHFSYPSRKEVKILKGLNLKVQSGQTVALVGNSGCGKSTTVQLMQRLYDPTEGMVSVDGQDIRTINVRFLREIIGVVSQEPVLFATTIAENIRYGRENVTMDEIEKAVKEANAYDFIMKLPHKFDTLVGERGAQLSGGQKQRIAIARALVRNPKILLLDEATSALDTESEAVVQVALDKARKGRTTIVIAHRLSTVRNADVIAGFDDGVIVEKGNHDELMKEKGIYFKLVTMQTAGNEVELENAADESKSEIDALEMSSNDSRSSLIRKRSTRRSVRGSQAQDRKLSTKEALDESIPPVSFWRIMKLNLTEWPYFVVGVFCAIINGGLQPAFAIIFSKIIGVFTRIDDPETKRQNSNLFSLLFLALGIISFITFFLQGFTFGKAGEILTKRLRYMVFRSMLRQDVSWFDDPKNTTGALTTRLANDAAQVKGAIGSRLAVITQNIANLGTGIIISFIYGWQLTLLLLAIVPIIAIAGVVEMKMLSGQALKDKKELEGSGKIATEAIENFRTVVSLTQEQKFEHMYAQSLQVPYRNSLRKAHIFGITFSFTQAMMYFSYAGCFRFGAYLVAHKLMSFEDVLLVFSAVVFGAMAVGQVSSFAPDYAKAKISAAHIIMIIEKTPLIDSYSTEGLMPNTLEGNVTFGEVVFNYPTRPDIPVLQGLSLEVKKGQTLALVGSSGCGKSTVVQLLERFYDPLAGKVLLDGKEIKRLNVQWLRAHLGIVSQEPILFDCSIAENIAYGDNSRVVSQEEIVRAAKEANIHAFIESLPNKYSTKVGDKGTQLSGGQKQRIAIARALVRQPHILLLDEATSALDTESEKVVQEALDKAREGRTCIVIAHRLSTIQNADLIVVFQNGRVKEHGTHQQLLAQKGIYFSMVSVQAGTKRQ

| pIC50 | SMILES |
| --- | --- |
| 4.53 | Fc1ccc([C@@H]2CCNC[C@H]2COc2ccc3c(c2)OCO3)cc1 [PAROXETINE] |
| 4.50 | CN[C@H]1CC[C@@H](c2ccc(Cl)c(Cl)c2)c2ccccc21 [SERTRALINE] |

Same assay, conditions: pig, l-mdr1

| Activity | SMILES |
| --- | --- |
| inhibitor [+] | COCCCC/C(=N\OCCN)c1ccc(C(F)(F)F)cc1 [FLUVOXAMINE] |
| inhibitor [+] | C/C=C/C[C@@H](C)C(=O)[C@H]1C(=O)N[C@@H](C(C)C)C(=O)N(C)CC(=O)N(C)[C@@H](CC(C)C)C(=O)N[C@@H](C(C)C)C(=O)N(C)[C@@H](CC(C)C)C(=O)N[C@@H](C)C(=O)N[C@H](C)C(=O)N(C)[C@@H](CC(C)C)C(=O)N(C)[C@@H](CC(C)C)C(=O)N(C)[C@@H](C(C)C)C(=O)N1C |
| inhibitor [+] | N[C@H]1CC[C@@H](c2ccc(Cl)c(Cl)c2)c2ccccc21 |
| is not an inhibitor [-] | CN(C)CC(c1ccc(O)cc1)C1(O)CCCCC1 (configuration not stated) [DESVENLAFAXINE] |
| inhibitor [+] | CN(C)CCCC1(c2ccc(F)cc2)OCc2cc(C#N)ccc21 (configuration not stated) [CITALOPRAM] |
| inhibitor [+] | CNCCCC1(c2ccc(F)cc2)OCc2cc(C#N)ccc21 (configuration not stated) [DESMETHYLCITALOPRAM] |
| inhibitor [+] | CNCC(c1ccc(OC)cc1)C1(O)CCCCC1 (configuration not stated) [N-DESMETHYLVENLAFAXINE] |
| inhibitor [+] | NCCC(Oc1ccc(C(F)(F)F)cc1)c1ccccc1 (configuration not stated) [NORFLUOXETINE] |

| SMILES | Activity |
| --- | --- |
| COc1ccc(C(CN(C)C)C2(O)CCCCC2)cc1 (configuration not stated) [VENLAFAXINE] | inhibitor [+] |
| COc1cc(OC[C@@H]2CNCC[C@H]2c2ccc(F)cc2)ccc1O [Paroxetine-M] | inhibitor [+] |

From ChEMBL document CHEMBL2074501, “Inhibition of P-glycoprotein by newer antidepressants” (J Pharmacol Exp Ther, 2003)
